Assay results published in patent US8084649B2, “Herbicides” (Syngenta Crop Protection, inc., priority 2007, dated 2011).

Assays:
Setaria faberi (SETFA) [1] = assay: Post-emergence herbicidal activity, glasshouse pot test; type: in vivo; conditions: Setaria faberi, evaluated after 14 or 15 days, read-out: Post-emergence activity, SETFA (100=total damage to plant; 0=no damage to plant); for pest or weed control at 500 g/ha: rate 500 g/ha; for pest or weed control at 125 g/ha: rate 125 g/ha
Method in brief: (§1)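 Plants sown in sterilised standard soil, grown 10 days in glasshouse, then sprayed with aqueous dilution of active ingredient formulated in acetone plus Emulsogen EL/N-methylpyrrolidone/dipropylene glycol monomethyl ether/X-77 solution. Damage scored visually 14 or 15 days after spraying, 0 (none) to 100 (total).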

[2] = test system: Alopecurus myosuroides (ALOMY); assay: as above; type: in vivo; conditions: Alopecurus myosuroides, evaluated after 14 or 15 days, read-out: Post-emergence activity, ALOMY (100=total damage to plant; 0=no damage to plant); for pest or weed control at 500 g/ha: rate 500 g/ha; for pest or weed control at 125 g/ha: rate 125 g/ha
Method in brief: as §1

[3] = test system: Echinochloa crus-galli (ECHCG); assay: as above; type: in vivo; conditions: Echinochloa crus-galli, evaluated after 14 or 15 days, read-out: Post-emergence activity, ECHCG (100=total damage to plant; 0=no damage to plant); for pest or weed control at 500 g/ha: rate 500 g/ha; for pest or weed control at 125 g/ha: rate 125 g/ha
Method in brief: as §1

Avena fatua (AVEFA) [4] = assay: as above; type: in vivo; conditions: Avena fatua, evaluated after 14 or 15 days, read-out: Post-emergence activity, AVEFA (100=total damage to plant; 0=no damage to plant); for pest or weed control at 500 g/ha: rate 500 g/ha; for pest or weed control at 125 g/ha: rate 125 g/ha
Method in brief: as §1

Lolium perenne (LOLPE) [5] = assay: as above; type: in vivo; conditions: Lolium perenne, evaluated after 14 or 15 days, read-out: Post-emergence activity, LOLPE (100=total damage to plant; 0=no damage to plant); for pest or weed control at 500 g/ha: rate 500 g/ha; for pest or weed control at 125 g/ha: rate 125 g/ha
Method in brief: as §1

[6] = test system: Digitaria sanguinalis (DIGSA); assay: as above; type: in vivo; conditions: Digitaria sanguinalis, evaluated after 14 or 15 days, read-out: Post-emergence activity, DIGSA (100=total damage to plant; 0=no damage to plant); for pest or weed control at 500 g/ha: rate 500 g/ha; for pest or weed control at 125 g/ha: rate 125 g/ha
Method in brief: as §1

Setaria faberi (SETFA) [7] = assay: Pre-emergence herbicidal activity, glasshouse pot test; type: in vivo; conditions: Setaria faberi, 480 h, rate 500 g/ha, evaluated after 20 days, read-out: Pre-emergence activity, SETFA (100=total damage to plant; 0=no damage to plant)
Method in brief: (§2)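 Seeds were sown in sterilised standard soil in pots and sprayed one day later with an aqueous dilution of the active ingredient formulated in acetone plus Emulsogen EL/N-methylpyrrolidone/dipropylene glycol monomethyl ether/X-77. Plants grew under optimum greenhouse conditions, and damage was rated visually after 20 days (0 = none, 100 = total).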

[8] = test system: Alopecurus myosuroides (ALOMY); assay: as above; type: in vivo; conditions: Alopecurus myosuroides, 480 h, rate 500 g/ha, evaluated after 20 days, read-out: Pre-emergence activity, ALOMY (100=total damage to plant; 0=no damage to plant)
Method in brief: as §2

[9] = test system: Echinochloa crus-galli (ECHCG); assay: as above; type: in vivo; conditions: Echinochloa crus-galli, 480 h, rate 500 g/ha, evaluated after 20 days, read-out: Pre-emergence activity, ECHCG (100=total damage to plant; 0=no damage to plant)
Method in brief: as §2

Avena fatua (AVEFA) [10] = assay: as above; type: in vivo; conditions: Avena fatua, 480 h, rate 500 g/ha, evaluated after 20 days, read-out: Pre-emergence activity, AVEFA (100=total damage to plant; 0=no damage to plant)
Method in brief: as §2

Lolium perenne (LOLPE) [11] = assay: as above; type: in vivo; conditions: Lolium perenne, 480 h, rate 500 g/ha, evaluated after 20 days, read-out: Pre-emergence activity, LOLPE (100=total damage to plant; 0=no damage to plant)
Method in brief: as §2

[12] = test system: Digitaria sanguinalis (DIGSA); assay: as above; type: in vivo; conditions: Digitaria sanguinalis, 480 h, rate 500 g/ha, evaluated after 20 days, read-out: Pre-emergence activity, DIGSA (100=total damage to plant; 0=no damage to plant)
Method in brief: as §2

SMILES	melting point [°C]	pest or weed control at 500 g/ha (Setaria faberi (SETFA) [1]) [%]	pest or weed control at 500 g/ha [2] [%]	pest or weed control at 500 g/ha [3] [%]	pest or weed control at 500 g/ha (Avena fatua (AVEFA) [4]) [%]	pest or weed control at 500 g/ha (Lolium perenne (LOLPE) [5]) [%]	pest or weed control at 500 g/ha [6] [%]	pest or weed control at 500 g/ha (Setaria faberi (SETFA) [7]) [%]	pest or weed control at 500 g/ha [8] [%]	pest or weed control at 500 g/ha [9] [%]	pest or weed control at 500 g/ha (Avena fatua (AVEFA) [10]) [%]	pest or weed control at 500 g/ha (Lolium perenne (LOLPE) [11]) [%]	pest or weed control at 500 g/ha [12] [%]	pest or weed control at 125 g/ha (Setaria faberi (SETFA) [1]) [%]	pest or weed control at 125 g/ha [2] [%]	pest or weed control at 125 g/ha [3] [%]	pest or weed control at 125 g/ha (Avena fatua (AVEFA) [4]) [%]	pest or weed control at 125 g/ha (Lolium perenne (LOLPE) [5]) [%]	pest or weed control at 125 g/ha [6] [%]
Cc1ccc(C)c(C2=C(OC(=O)N(C)CCC#N)CC3(CCOCC3)CC2=O)c1 [Compound P57]	108 to 114																		
CCc1ccc(-c2ccc(Cl)cc2)cc1C1=C(O)CC2(CCOCC2)CC1=O [Compound T4, 9-(5-(4′-chlorophenyl)-2-ethylphenyl)-3-oxaspiro[5.5]undecane-8,10-dione]	94.5 to 97.5	90	90	100	80	70	100	100	70	100	70	70	100						
CCc1cc(C)cc(CC)c1C1=C(O)CC(CC(C)[S+]([O-])CC)CC1=O (stereo not drawn) [Compound T29, 2-(2,6-diethyl-4-methylphenyl)-5-[2-(ethylsulfinyl)propyl]cyclohexane-1,3-dione]	58 to 61	90	90	100	100	90	100	100	100	100	90	100	100						
CCc1cc(C)cc(CC)c1C1=C(O)CC(CC(C)[S+]([O-])C(C)C)CC1=O (stereo not drawn) [Compound T55]								90	100	100	90	100	100	60	90	90	80	80	80
CCc1ccc(-c2ccc(Cl)cc2)cc1C1=C(O)CC(CCSC)CC1=O (stereo not drawn) [Compound T65]								100	90	100	60	70	100	90	90	100	90	70	90
CCc1cc(C)cc(CC)c1C1=C(O)CC2(CCC(OC)CC2)CC1=O (stereo not drawn) [Compound T68]								30	90	70	70	100	100	20	80	20	40	80	30
COC1CCC2(CC1)CC(=O)C(c1cc(-c3ccc(Cl)cc3)ccc1C)=C(O)C2 (stereo not drawn) [Compound T69]								70	0	70	30	60	100	0	20	0	10	50	0
